# Read-outs that look alike come from different tables or passages of the source.
# Tests used:
# Pseudomonas aeruginosa [1] = assay: MBEC assay: sessile (biofilm) MIC of antibiotics in absence and presence of LMS-611; format: cell-based; details: for sessile MIC + LMS: in presence of LMS-611 (10 mg/mL); for reduction of sessile MIC of the antibiotic by LMS-611: PA strains, in combination with LMS-611; for MIC: Pseudomonas aeruginosa; for MIC / sessile MIC: antibiotic alone; for effect of LMS-611 with antibiotic in reducing biofilm MICs, compared with antibiotic alone: strain PA01, FIG. 14-17
# Method: Pseudomonas aeruginosa strains PA01, PAl4, two clinical Cystic Fibrosis (CF) strains […], YH1 and Burkholderia cenocepacia strains […]7 and YHBCC8 were grown on a Nunc Immunosorp PEG plate model for 48 h on a rocking platform. […] Scanning electron microscopy was used to assess the treated biofilms.
# Pseudomonas aeruginosa [2] = assay: Artificial sputum medium (ASM) biofilm assay; format: cell-based; details: for bacterial kill of antibiotic with LMS-611: LMS-611 at 40 μg/ml
# Text: ASM is artificial sputum medium.
# Images of PA biofilm in ASM. Quantification of bacterial count from the ASM biofilm (CFU/mL).
# In vitro, Artificial Sputum Models (ASM), considered to represent biofilm typical of that seen in CF, were used to study Pseudomonas aeruginosa infection.
# Pyocyanin, a blue-green phenazine pigment produced by P. aeruginosa and controlled by the quorum sensing system (a system of inter-bacterial signalling which correlates to population density) and thus its presence and concentration in a bacterial culture can be used to give an indication of the strength of quorum sensing activity.
# Measurement of metabolic activity of Pseudomonas aeruginosa in the Artificial Sputum Model (ASM) using a Resazurin assay, in which the fluorescence detected is directly proportional to the metabolic activity of the bacteria (FIG. 3).
# Burkholderia cenocepacia = assay: MBEC assay: sessile (biofilm) MIC of antibiotics in absence and presence of LMS-611; format: cell-based; details: for MIC: Burkholderia cenocepacia
# Method: Pseudomonas aeruginosa strains PA01, PAl4, two clinical Cystic Fibrosis (CF) strains H183, YH1 and Burkholderia cenocepacia strains K56-2, YHBCC5, YHBCC6, YHBCC7 and YHBCC8 were grown on a Nunc Immunosorp PEG plate model for 48 h on a rocking platform. […] Scanning electron microscopy was used to assess the treated biofilms.
# PA strains = assay: Nebulisation of LMS-611 combined with antibiotic, multistage liquid impactor (MSLI); parameters: species or system Pseudomonas aeruginosa; details: colistin: PA2783 strain, stages representing site of cystic fibrosis lung disease; tobramycin: PA strain 27853
# Text: FIG. 18 illustrates the effect of nebulisation of LMS-611 when combined with Colistin with PA strain 217M using nebulisers with two different modes of operation (Pari-boy (jet-type) and Pari Flow (oscillating mesh)) wherein a multistage liquid impactor (MSLI) was used to measure the aerodynamic particle size distribution and deposition from nebulised LMS-611 compositions wherein the MSLI from Copley measures particle size in accordance with the European Pharmacopeia guidelines (Chapter […]) and the impactor has five stages simulating the various parts of the human respiratory system. Particles with the same inertia will impact upon a particular stage, whilst smaller particles will pass onto the next impaction stage such that by analysing the amount of LMS-611 deposited on the various stages the fine particle dose and fraction can be calculated wherein the fine particle dose (respirable fraction) is the proportion of the dose from an inhalation device (nebuliser) that is made available to the airways, and this correlates with the dose of LMS-611 that reaches the conducting airways during inhalation;
Compound,sessile MIC + LMS (Pseudomonas aeruginosa [1]; PA strain H183),sessile MIC + LMS (Pseudomonas aeruginosa [1]; PA strain PA01),sessile MIC + LMS (Pseudomonas aeruginosa [1]; PA strain PA14),sessile MIC + LMS (Pseudomonas aeruginosa [1]; PA strain YH1),reduction of sessile MIC of the antibiotic by LMS-611 (Pseudomonas aeruginosa [1]),"MIC (Pseudomonas aeruginosa [1]; PA14, PA strain PA14)",MIC (Pseudomonas aeruginosa [1]; PA strain H183),MIC (Pseudomonas aeruginosa [1]; PA strain PA01),MIC (Pseudomonas aeruginosa [1]; PA strain YH1),"effect of LMS-611 with antibiotic in reducing biofilm MICs, compared with antibiotic alone (Pseudomonas aeruginosa [1])",other results
C[C@H]1[C@H](NC(=O)/C(=N\OC(C)(C)C(=O)O)c2csc(N)n2)C(=O)N1S(=O)(=O)O [Aztreonam],2000 µg/mL,2000 µg/mL,2000 µg/mL,1000 µg/mL,2-4 fold,4000 µg/mL,4000 µg/mL,4000 µg/mL,4000 µg/mL,–,–
O=C(O)c1cn(C2CC2)c2cc(N3CCNCC3)c(F)cc2c1=O [Ciprofloxacin],–,–,–,–,–,–,–,–,–,–,bacterial kill of antibiotic with LMS-611 (Pseudomonas aeruginosa [2]): total bacterial kill
C[C@@H](O)[C@H]1C(=O)N2C(C(=O)O)=C(S[C@@H]3CN[C@H](C(=O)N(C)C)C3)[C@H](C)[C@H]12 [Meropenem],1000 µg/mL,2000 µg/mL,2000 µg/mL,1000 µg/mL,1-2 fold,2000 µg/mL,2000 µg/mL,2000 µg/mL,2000 µg/mL,–,–
CCN1CCN(C(=O)N[C@@H](C(=O)N[C@@H]2C(=O)N3[C@@H]2SC(C)(C)[C@@H]3C(=O)O)c2ccccc2)C(=O)C1=O [Piperacillin],250 µg/mL,250 µg/mL,1000 µg/mL,1000 µg/mL,4-16 fold,8000 µg/mL,4000 µg/mL,2000 µg/mL,8000 µg/mL,more effective,"MIC (Burkholderia cenocepacia; BCC strain K56-2, antibiotic alone, read-out: sessile MIC): 64000 µg/mL; MIC (Burkholderia cenocepacia; BCC strain K56-2, in presence of LMS-611 (10 mg/mL), read-out: sessile MIC + LMS): 16000 µg/mL; MIC (Burkholderia cenocepacia; BCC strain YHBCC5, antibiotic alone, read-out: sessile MIC): 32000 µg/mL; MIC (Burkholderia cenocepacia; BCC strain YHBCC5, in presence of LMS-611 (10 mg/mL), read-out: sessile MIC + LMS): 4000 µg/mL; MIC (Burkholderia cenocepacia; BCC strain YHBCC6, antibiotic alone, read-out: sessile MIC): 32000 µg/mL; MIC (Burkholderia cenocepacia; BCC strain YHBCC6, in presence of LMS-611 (10 mg/mL), read-out: sessile MIC + LMS): 32000 µg/mL; MIC (Burkholderia cenocepacia; BCC strain YHBCC7, antibiotic alone, read-out: sessile MIC): 32000 µg/mL; MIC (Burkholderia cenocepacia; BCC strain YHBCC7, in presence of LMS-611 (10 mg/mL), read-out: sessile MIC + LMS): 4000 µg/mL"
NC[C@H]1O[C@H](O[C@H]2[C@H](O)[C@@H](O[C@H]3O[C@H](CO)[C@@H](O)[C@H](N)[C@H]3O)[C@H](N)C[C@@H]2N)[C@H](N)C[C@@H]1O [Tobramycin],<4000 µg/mL,<4000 µg/mL,<4000 µg/mL,500 µg/mL,1-4 fold,< 4000 µg/mL,< 4000 µg/mL,< 4000 µg/mL,2000 µg/mL,–,"bacterial kill of antibiotic with LMS-611 (Pseudomonas aeruginosa [2]): total bacterial kill; bacterial clearance of LMS-611 plus antibiotic compared to antibiotic treatment alone (Pseudomonas aeruginosa [2]; preformed biofilm, in combination with LMS-611): significantly greater bacterial clearance; bactericidal effect of nebulised antibiotic combined with LMS-611 by MSLI stage (PA strains): greater on the 6.8 μm, 3.1 μm and 1.7 μm stages"
CC(C)(O/N=C(\C(=O)N[C@@H]1C(=O)N2C(C(=O)[O-])=C(C[n+]3ccccc3)CS[C@H]12)c1csc(N)n1)C(=O)O [ceftazidime],–,–,–,–,–,–,–,–,–,more effective,–
CC[C@H]1OC(=O)[C@H](C)[C@@H](O[C@H]2C[C@@](C)(OC)[C@@H](O)[C@H](C)O2)[C@H](C)[C@@H](O[C@@H]2O[C@H](C)C[C@H](N(C)C)[C@H]2O)[C@](C)(O)C[C@@H](C)C(=O)[C@H](C)[C@@H](O)[C@]1(C)O [erythromycin],–,–,–,–,–,–,–,–,–,–,"reduction of sessile MIC of the antibiotic by LMS-611 (Burkholderia cenocepacia; BCC strains, in combination with LMS-611): No effect"
Gentamicin,500 µg/mL,500 µg/mL,500 µg/mL,–,4-8 fold,–,–,–,–,more effective,"sessile MIC (Burkholderia cenocepacia; BCC strain K56-2, antibiotic alone): 256000 µg/mL; sessile MIC + LMS (Burkholderia cenocepacia; BCC strain K56-2, in presence of LMS-611 (10 mg/mL)): 64000 µg/mL; sessile MIC (Burkholderia cenocepacia; BCC strain YHBCC5, antibiotic alone): >256000 µg/mL; sessile MIC + LMS (Burkholderia cenocepacia; BCC strain YHBCC5, in presence of LMS-611 (10 mg/mL)): 256000 µg/mL; sessile MIC (Burkholderia cenocepacia; BCC strain YHBCC6, antibiotic alone): 64000 µg/mL; sessile MIC + LMS (Burkholderia cenocepacia; BCC strain YHBCC6, in presence of LMS-611 (10 mg/mL)): 16000 µg/mL; sessile MIC (Burkholderia cenocepacia; BCC strain YHBCC7, antibiotic alone): 128000 µg/mL; sessile MIC + LMS (Burkholderia cenocepacia; BCC strain YHBCC7, in presence of LMS-611 (10 mg/mL)): 16000 µg/mL; sessile MIC (Pseudomonas aeruginosa [1]; PA strain H183): 4000 µg/mL; sessile MIC (Pseudomonas aeruginosa [1]; PA strain PA01): 4000 µg/mL; sessile MIC (Pseudomonas aeruginosa [1]; PA strain PA14): 4000 µg/mL; sessile MIC (Pseudomonas aeruginosa [1]; PA strain YH1): 500 µg/mL"
colistin,–,–,–,–,–,–,–,–,–,more effective,bactericidal effect of nebulised antibiotic combined with LMS-611 by MSLI stage (PA strains): greatest bactericidal effect

# From patent publication US20180169145A1, “COMPOSITIONS AND METHODS FOR USING LAMELLAR BODIES FOR THERAPEUTIC PURPOSES” (priority 2015, published 2018)
